The values that follow come from patent US4251658A, “3-(1-Pyrazolyl)-pyridazine derivatives” (Richter Gedeon Vegyeszeti Gyar Rt., priority 1977, dated 1981).

In series [1] the target is T1, prostaglandin dehydrogenase (PGDH) (Sus scrofa, UniProt A0ACM8QJV0).
T1 construct: PGDH preparation from pig-lung; from tissue; host or cells: pig lung
T1 sequence (A0ACM8QJV0 1-266): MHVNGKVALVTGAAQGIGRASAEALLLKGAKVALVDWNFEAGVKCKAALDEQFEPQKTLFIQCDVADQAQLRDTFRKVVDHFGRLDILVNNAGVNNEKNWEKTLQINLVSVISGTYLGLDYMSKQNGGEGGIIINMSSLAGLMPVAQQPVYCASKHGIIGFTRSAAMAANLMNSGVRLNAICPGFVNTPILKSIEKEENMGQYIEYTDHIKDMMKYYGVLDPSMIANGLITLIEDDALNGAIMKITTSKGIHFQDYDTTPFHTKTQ
The series can be described thus: Prostaglandin dehydrogenase (PGDH) inhibiting action, PGDH preparation from pig-lung. It is filed as biochemical. As to conditions: read-out: I50% inhibiting levels in final concentrations, PGDH. An excerpt:
(§1) The I50%, i.e. the index of inhibition is defined as the concentration of the substance inhibiting to 50% the function of the corresponding enzyme.

Series [2] concerns the target prostaglandin-A isomerase (PGAI). The series can be described thus: Prostaglandin-A isomerase (PGAI) inhibiting action, PGAI preparation from the blood-plasma of pigs. In kind it is biochemical. As to conditions: read-out: I50% inhibiting levels in final concentrations, PGAI.
Description: as §1

A short description of series [3]: Hypotensive action in narcotized cats. In kind it is in vivo. As to conditions: pentobarbital narcosis. On the procedure:
The substances were administered in doses of 5, 2.5 and 1 mg./kg., respectively, and Hydralazine (1-hydrazinophthalazine hydrochloride) was used as reference compound.

The next series in a line: in vivo. As to conditions: mouse, mice, oral, read-out: Acute oral toxicity on mice LD50.
Series [4] in a line: Systolic blood pressure in the caudal artery of spontaneously hypertensive (Wistar-Okamoto) rats, oral treatment. It is filed as in vivo. As to conditions: for decrease in systolic blood pressure: oral.

Turning to `CCOC(=O)c1cnn(-c2ccc(NCc3ccccn3)nn2)c1N` [Example 16, 3-(2Pyridylmethylamino)-A], the values for the IC50 in series [1] and in series [2] were 150 µM and 75 µM, respectively.
As to `CCOC(=O)c1cnn(-c2ccc(NCc3ccco3)nn2)c1N` [Example 6, 3-Furfurylamino-A], the IC50 is 55 µM in series [1] and 50 µM in series [2].
For `CCOC(=O)c1cnn(-c2ccc(NCc3ccncc3)nn2)c1N` [Example 18, 3-(4-Pyridylmethylamino)-A], the IC50 in series [2] came to 36 µM.
What is called LD50 is the dose expected to kill half of the subjects tested. On to `COc1ccc(CCNc2ccc(-n3ncc(C(=O)NN)c3N)nn2)cc1OC` [Example 33, 3-(3,4-Dimethoxyphenylethyl-amino)-B], for which the “Decrease in blood pressure in Hgmm by 1 mg./kg.” value (shortened to “Decrease in blood pressure”) in series [3] is recorded as -10 Hgmm. Moreover, the LD50 in the series “in vivo” is ~150 mg/kg.
As for `NNC(=O)c1cnn(-c2cccnn2)c1N` [Example 32], the “Decrease in blood pressure” value in series [3] is -10 Hgmm. In addition, the LD50 in “in vivo” is 200 mg/kg.
`CCOC(=O)c1cnn(-c2ccc(NCc3cccnc3)nn2)c1N` [Example 17, 3-(3-Pyrdiylmethylamino)-A]: the figures for the IC50 in series [1] and in series [2] were 200 µM and 25 µM, respectively.
Regarding `CCOC(=O)c1cnn(-c2ccc(NC(C)c3ccccc3)nn2)c1N` (centres unmarked) [Example 20, 3-(1-Phenylethylamino)-A], in series [2], the IC50 is 180 µM.
Consider `CCOC(=O)c1cnn(-c2ccc(NC3CCCCC3)nn2)c1N` [Example 5, 3-Cyclohexylamino-A], for which, in series [2], the IC50 amounted to 100 µM.
As to `CCOC(=O)c1cnn(-c2ccc(NCc3ccccc3)nn2)c1N` [Example 7, 3-Benzylamino-A], in series [3], the “Decrease in blood pressure” value is given as -15 Hgmm. Further, the LD50 in the series “in vivo” was determined as 1000 mg/kg.
In the same order, the values of `NNC(=O)c1cnn(-c2ccc(N(CCO)CCO)nn2)c1N` [Example 31, 3-[bis(2-Hydroxyethyl)-amino]-6-(4-carbazoyl-5-amino-1-pyrazolyl)-pyridazin] are -10 Hgmm and 250 mg/kg.
`Cl.NNc1nncc2ccccc12` [Hydralazine, 1-hydrazinophthalazine hydrochloride, reference compound]: in series [3], the “Decrease in blood pressure” value is -40 Hgmm. Also, the “decrease in systolic blood pressure” value in series [4] (10 mg./kg. (reference), after 2 hours) was 21%; in series [4] (10 mg./kg. (reference), after 5 hours), 22%; in series [4] (10 mg./kg. (reference), after 24 hours) it was 15%. Also, the IC50 in series [2] came to 90 µM.
On to `CN(N)c1ccc(-n2ncc(C#N)c2N)nn1` [Example 30, 3-(1-methylhydrazino)-6-(4-cyano-5-amino-1-pyrazolyl)-pyridazine], for which the “Decrease in blood pressure” value in series [3] is listed as -40 Hgmm. For the same compound, the tachycardia result in series [4] (against Hydralazine) is “does not cause any significant tachycardia”. Also, the “decrease in systolic blood pressure” value turned out to be 31% in series [4] (20 mg./kg., after 2 hours); 16% in series [4] (20 mg./kg., after 5 hours); 15% in series [4] (20 mg./kg., after 24 hours). Moreover, in “in vivo”, the LD50 is 200 mg/kg.
As to `CCOC(=O)c1cnn(-c2ccc(NCCN(CC)CC)nn2)c1N` [Example 11, 3-(2-Diethylaminoethylamino)-A], the IC50 in series [2] amounted to 44 µM.
